Experimental data reported in patent US10377731B2, “Compositions and methods for cancer treatment” (Boston Biomedical, Inc., priority 2007, dated 2019).
Entries after “also recorded” stand apart in the source; their conditions may differ.

Assays:
CD44high CSCs (FaDu) = experiment: Sphere assay (CSC spherogenesis); type: cell-based, human; conditions: FACS-isolated CD44high CSCs grown as spheres for 72 hours before challenge
Experimental: CD44^high cells were isolated by FACS according to the methods described in Ponti et al, with slight modification. Briefly, after trypsinization and recovery of cells for 30 minutes at 37° C. in growth media, cells were pelleted at 400×g and were resuspended in PBS with 2% FBS and 1 mM EDTA at 1×10^6 cells/mL. Cells were then incubated on ice with a 1:100 dilution of CD44-FITC (BD Biosicences, San Diego, Calif.) for 15 minutes. Alternatively, CD24-PE (BD Bioscences, San Diego, Calif.) (1:100) was utilized for negative selection. After washing three times, cells were resuspended at 2×10^6/mL and passed through a […] mesh before sorting
Sphere assay: A reliable method of measuring the self-renewal capacity of cell population if the ability to be cultured as spheres in the absence of serum or attachment. CD44^high FaDu or Hoechst side population cancer stem cells were cultured in ultra low attachment plates in cancer stem cell media (DMEM/F12, B27 Neurobasal supplement, 20 ng/ml EGF, 10 ng/ml FGF, 4 μg/ml insulin, and 0.4% BSA) to allow spheres formation. Typically, sphere formation was evaluated by microscopy after 10-14 days in culture and spheres with >50 cells were scored.
Identification of compounds that inhibit CSC spherogenesis in vitro. One of the hallmarks of cancer stem cells is their ability to self-renew. A reliable method of measuring the self-renewal capacity of cell populations is the ability to be cultured as spheres in the absence of serum or attachment. To compare the ability of compound 401 to other targeted and chemotherapeutic agents, FACS-isolated CD44^high CSCs were grown as spheres for 72 hours before being challenged with a panel of therapeutic agents. […] Tarceva, Sutent, and Gleevec were added at approximately three times their reported therapeutic concentrations.

CD133+ cells = experiment: Cleaved-Caspase 3 staining of CD133+ cells; type: cell-based; conditions: CD133+ cells enriched with antibody magnetic beads
Description: CSC isolation with surface markers: Sorting tumor cells based primarily upon the differential expression of the surface marker(s), such as CD44 or CD133, have accounted for the majority of the highly tumorigenic CSCs described to date. CD133 isolation is based upon the method of Ricci-Vitiani et al., with slight modification. CD133^+ cells were isolated by either fluorescence activated cell sorting (FACS) or magnetic nanoparticle-based separation. Briefly, 10^7 cells/mL were labeled with CD133/1 (AC133)-PE for FACS-based cell sorting; or with CD133/1 (AC133)-biotin (Miltenyi Biotec, Auburn, Calif.) for magnetic field-based separation using the EasySep® biotin selection kit (Miltenyi Biotec) according to the manufacturer's recommendations. Non-specific labeling was blocked with the supplied FcR blocking reagent and antibody incubations (1:11) were carried out on ice for 15 minutes in PBS with 2% FBS and 1 mM EDTA. Five washes were done for EasySep® isolation, whereas cells were pelleted at 400×g for 5 minutes and resuspended at 2×10^7/mL, before sorting by FACS.
Immunofluorescence: Cells treated with indicated compound for an indicated time were either fixed in 4% formaldehyde or cold methanol for the detection of Annexin V, cleaved caspase 3, or stat3, respectively. Coverslips were air dried and rehydrated in PBS at room temperature for 10 min. […]

[1] = system: Paca2 human pancreatic cancer cells; experiment: Colony formation, Paca2 cells, single drugs and combinations; type: cell-based; conditions: Homo sapiens, read-out: Compound 401 (% Inhibition)
Experimental: (§1) Paca2 human pancreatic cancer cells, A549 human lung cancer cells, and HepG2 human liver cancer cells (American Type Culture Collection) were cultured in Dulbecco's modified Eagle's medium containing 10% fetal bovine serum, 100 units/mL penicillin, 100 μg/mL streptomycin, and 2 mM L-glutamine. […] Erlotinib was from American Custom Chemicals (San Diego, Calif.). Gemcitabine was from Eli Lilly (Indianapolis, Ind.) in an aqueous 20 mM stock solution. Sorafenib was Mass.). Unless otherwise noted all compounds were solubilized in DMSO at 10 mM and aliquoted at −20° C. Exponentially growing Paca2 pancreatic cancer cells were seeded at 1,000 cells per well in 6-well plates and allowed to attach for 24 hours. Increasing concentrations of individual drugs and those in combination were then added to the media for another 24 hours. After 24 hours exposure, the drug was removed and fresh media was added for the next 10-14 days, allowing for colony formation. Cells were fixed and stained with GIEMSA (Gibco BRL). […] Results are an average of duplicate experiments. Alternatively, MTT assays were performed 72 hours post-treatment in A549 and HepG2 cells.

[2] = system: HepG2 human liver cancer cells; experiment: 72 hour MTT, HepG2 cells, single drugs and combinations; type: cell-based; conditions: read-out: Compound 401 (% Inhibition)
Experimental: Cell Viability Determination: For 3-(4,5 dimethylthiazol-2-yl)-2,5-diphenyltetrazolium (MTT) (Sigma-Aldrich, St. Louis, Mo.) analysis, cells were plated in 96 well plates at 10,000 cells per well. 24 hours after plating, compound was added to cells at indicated doses. […] following compound addition, MTT was added to each well (0.5 mg/ml, final concentration) and plates were incubated for an additional 2 hours at 37° C. Medium was then aspirated and the formazan product was solubilized in 100 μl of isopropyl alcohol. The absorbance of each well was measured at 570 nm using a microplate reader.
as §1

CC(=O)c1cc2c(o1)C(=O)c1ccccc1C2=O [Compound 401, 2-acetylnaphtho[2,3-b]furan-4,9-dione]
Effect on CSC sphere proliferation / formation (CD44high CSCs (FaDu)): effective at preventing sphere proliferation; also recorded: blocks
Cleaved-Caspase 3 staining (apoptosis) (CD133+ cells): many of the CD133^+ cells become cleaved-Caspase 3 positive; also recorded: apoptotic
inhibition at 0.066 µM ([1]; PaCa-2, 401 alone 66 nM): 32%
inhibition at 0.133 µM ([1]; PaCa-2, 401 alone 133 nM): 66%
inhibition at 0.125 µM ([2]; 401 alone 125 nM): 7%
inhibition at 0.25 µM ([2]; 401 alone 250 nM): 43%
